For test [1], the system named is Vibrio fischeri. Nature of the test: Metals spotted on chromatography paper sheet, dried, exposed to luminescent bacteria. It is filed as cell-based. The note with it: no chromatography separation. The text has this:
Upon spotting of the various metals along one side of a chromatography paper sheet, the sample spots were allowed to dry. Upon drying, the spotted sheets were exposed to the luminescent bacteria Vibrio fischeri.

Test [2] concerns Vibrio fischeri. The test is described as follows: Inhibition of luminescence of luminescent bacteria (general statements). It is filed as cell-based.

For `[Cd]` [cadmium], the “visualization of heavy metal salts by luminescent bacteria” value with Vibrio fischeri [1] is “able to visualize the presence”.
On to `[Ca+2]` [calcium ion], for which the “inhibition of luminescence of Vibrio fischeri” value in the test on Vibrio fischeri [2] is on record as “Neither does the luminescence of the Vibrio fischeri appear to be immediately inhibited”.
As for lead, in the test with Vibrio fischeri [1], the “visualization of heavy metal salts by luminescent bacteria” value is “able to visualize the presence”.
Still for that read-out and setting: with mercury the entry was “able to visualize the presence”.

The values are drawn from patent US7713690B1, “Luminous bacteria and methods for the isolation, identification and quantitation of toxicants” (priority 1991, dated 2010).
